Source: article PMC9839507 (ACS applied materials & interfaces, 2022)

Tested on: orthotopic U87MG-luc glioma
Type: in vivo, BALB/c nude mice

CC1(C)C(/C=C/C=C/C=C/C=C2\N(CCCCS(=O)(=O)O)c3ccc4ccccc4c3C2(C)C)=[N+](CCCCS(=O)(=O)[O-])c2ccc3ccccc3c21 [ICG, indocyanine green, reference compound]
detection in orthotopic glioma by fluorescent imaging (2 h after i.v. injection, 30 nmol, n = 3): detected | ICG signal at the tumor site by tissue fluorescence imaging (Figure S9): slightly detectable | ex vivo fluorescent signals in tumors (brains harvested at 72 h postinjection): undetectable
